# Data: patent US5190741A, “Agents for diagnosing and treating melanomas, aromatic halogenated derivatives usable as such agents and their preparation” (Institut National de la Sante et de la Recherche Medicale …, priority 1989, dated 1993)
# Where two headings read alike, the source gives them in different places.
# Assays:
# [1] = tested on: human and murine melanomas; assay: Scintillation imaging in human and murine melanoma models (B16, B16 pulmonary metastases, Beu, Dau, FOSS(ORIS)); type: in vivo, human; mouse
# Source text: The mice bearing grafted tumors are anesthetized by the i.p. injection of sodium pentobarbital 1/5 and immobilized under a scintillation camera (Gammatome II, CGR) equipped with a pinhole 3-360 collimator, sensitivity 3.2 10^-4. […] C57 BL6 bearing pulmonary metastases of B16 melanoma.
# [2] = tested on: 6 weeks old male nu/nu SSCUP nude mice; assay: LD50 determination, i.v. (Karber and Behrens); details: mouse, in vivo, iv
# Source text: (§1) The determination of the LD50 is made in the mouse after i.v. injection of the molecules according to the methodology described by Karber and Behrens.
# (§2) 6 weeks old male nu/nu SSCUP nude mice, […]
# [3] = LD50 determination, i.v. (Karber and Behrens); details: mouse, in vivo, iv
# Source text: as §1, §2
# [4] = Tissue distribution in Swiss nu/nu SSCUP mice bearing Beu; type: in vivo, human; details: mouse, iv, 3 umol/animal
# Method: The study of the tissue distribution of the ^125 I labelled compounds was performed in mice bearing grafted melanomas (cf. autoradiograms above). […] The animals are sacrificed at different time intervals of 1 to 24 hours after the injection. The blood is collected and the principal organs are excised. Aliquots are weighed and the radioactivity of the samples is measured in a […] 1191 counter (analytic tracer). The counting yield for iodine 125 is 60%. The results are expressed: as a percentage of the injected dose bound per g of tissue (% ID/g); in the form of the ratios [formula] This ratio reflects more precisely the selectivity of a molecule for an organ (tables 2, 4, 6, 8, 10 and 12).
# [5] = intestine, read-out: intestine % ID/g
# [6] = kidney, read-out: kidney % ID/g
# [7] = muscle, read-out: muscle % ID/g
# [8] = pancreas, read-out: pancreas % ID/g
# [9] = plasma, read-out: plasma % ID/g
# [10] = spleen, read-out: spleen % ID/g
# [11] = stomach, read-out: stomach % ID/g
# [12] = submaxillary glands, read-out: submaxillary glands % ID/g
smiles,measurement,setting,value
"CCN(CC)CCNC(=O)c1ccc(I)cc1 [Derivative A, N-(2-diethylaminoethyl) 4-iodo benzamide]",tumoral definition in scintillation images,"[1]; ^125 I and ^123 I-A, i.v.",good tumoral definition
same,early images,[1]; considerable intraabdominal and pulmonary radioactivity,more difficult to interpret
same,quality of tumor images,[1]; from 4 h,good quality
same,intratumoral necrosis zones,[1]; in vivo,not visualized
same,size of human melanoma imaged,[1]; in vivo,less than 5 mm
same,LD 0,[2],60 mg/kg
same,LD 100,[2],150 mg/kg
same,LD50,[3],90 mg/kg
same,tissue uptake at 1 h,"[4]; blood, read-out: blood % ID/g",0.87 %ID/g
same,tissue uptake at 2 h,"[4]; blood, read-out: blood % ID/g",0.53 %ID/g
same,tissue uptake at 4 h,"[4]; blood, read-out: blood % ID/g",0.32 %ID/g
same,tissue uptake at 6 h,"[4]; blood, read-out: blood % ID/g",0.13 %ID/g
same,tissue uptake at 24 h,"[4]; blood, read-out: blood % ID/g",0.01 %ID/g
same,tissue uptake at 8 h,"[4]; blood, 8 h, read-out: blood % ID/g",0.05 %ID/g
same,tissue uptake at 12 h,"[4]; blood, read-out: blood % ID/g",0.02 %ID/g
same,tissue uptake at 1 h,"[4]; brain, read-out: brain % ID/g",1.66 %ID/g
same,tissue uptake at 2 h,"[4]; brain, read-out: brain % ID/g",1.13 %ID/g
same,tissue uptake at 4 h,"[4]; brain, read-out: brain % ID/g",0.78 %ID/g
same,tissue uptake at 6 h,"[4]; brain, read-out: brain % ID/g",0.28 %ID/g
same,tissue uptake at 24 h,"[4]; brain, read-out: brain % ID/g",0.006 %ID/g
same,tissue uptake at 8 h,"[4]; brain, 8 h, read-out: brain % ID/g",0.13 %ID/g
same,tissue uptake at 12 h,"[4]; brain, read-out: brain % ID/g",0.01 %ID/g
same,tissue uptake at 1 h,"[4]; eye, read-out: eye % ID/g",0.64 %ID/g
same,tissue uptake at 2 h,"[4]; eye, read-out: eye % ID/g",0.56 %ID/g
same,tissue uptake at 4 h,"[4]; eye, read-out: eye % ID/g",0.34 %ID/g
same,tissue uptake at 6 h,"[4]; eye, read-out: eye % ID/g",0.13 %ID/g
same,tissue uptake at 24 h,"[4]; eye, read-out: eye % ID/g",0.03 %ID/g
same,tissue uptake at 8 h,"[4]; eye, 8 h, read-out: eye % ID/g",0.07 %ID/g
same,tissue uptake at 12 h,"[4]; eye, read-out: eye % ID/g",0.03 %ID/g
same,tissue uptake at 1 h,[4]; [5],3.76 %ID/g
same,tissue uptake at 2 h,[4]; [5],2.35 %ID/g
same,tissue uptake at 4 h,[4]; [5],1.56 %ID/g
same,tissue uptake at 6 h,[4]; [5],0.52 %ID/g
same,tissue uptake at 8 h,"[4]; intestine, 8 h, read-out: intestine % ID/g",0.15 %ID/g
same,tissue uptake at 12 h,[4]; [5],0.08 %ID/g
same,tissue uptake at 24 h,[4]; [5],0.03 %ID/g
same,tissue uptake at 1 h,[4]; [6],7.63 %ID/g
same,tissue uptake at 2 h,[4]; [6],5.9 %ID/g
same,tissue uptake at 4 h,[4]; [6],4.28 %ID/g
same,tissue uptake at 6 h,[4]; [6],0.99 %ID/g
same,tissue uptake at 24 h,[4]; [6],0.06 %ID/g
same,tissue uptake at 8 h,"[4]; kidney, 8 h, read-out: kidney % ID/g",0.28 %ID/g
same,tissue uptake at 12 h,[4]; [6],0.1 %ID/g
same,tissue uptake at 1 h,"[4]; liver, read-out: liver % ID/g",5.27 %ID/g
same,tissue uptake at 2 h,"[4]; liver, read-out: liver % ID/g",3.5 %ID/g
same,tissue uptake at 4 h,"[4]; liver, read-out: liver % ID/g",2.28 %ID/g
same,tissue uptake at 6 h,"[4]; liver, read-out: liver % ID/g",0.94 %ID/g
same,tissue uptake at 24 h,"[4]; liver, read-out: liver % ID/g",0.13 %ID/g
same,tissue uptake at 8 h,"[4]; liver, 8 h, read-out: liver % ID/g",0.52 %ID/g
same,tissue uptake at 12 h,"[4]; liver, read-out: liver % ID/g",0.28 %ID/g
same,tissue uptake at 1 h,"[4]; lungs, read-out: lungs % ID/g",7.77 %ID/g
same,tissue uptake at 2 h,"[4]; lungs, read-out: lungs % ID/g",4.71 %ID/g
same,tissue uptake at 4 h,"[4]; lungs, read-out: lungs % ID/g",3.6 %ID/g
same,tissue uptake at 6 h,"[4]; lungs, read-out: lungs % ID/g",1.25 %ID/g
same,tissue uptake at 8 h,"[4]; lungs, 8 h, read-out: lungs % ID/g",0.35 %ID/g
same,tissue uptake at 12 h,"[4]; lungs, read-out: lungs % ID/g",0.08 %ID/g
same,tissue uptake at 24 h,"[4]; lungs, read-out: lungs % ID/g",0.05 %ID/g
same,tissue uptake at 1 h,[4]; [7],1.3 %ID/g
same,tissue uptake at 2 h,[4]; [7],0.93 %ID/g
same,tissue uptake at 4 h,[4]; [7],0.51 %ID/g
same,tissue uptake at 6 h,[4]; [7],0.33 %ID/g
same,tissue uptake at 24 h,[4]; [7],0.01 %ID/g
same,tissue uptake at 8 h,"[4]; muscle, 8 h, read-out: muscle % ID/g",0.08 %ID/g
same,tissue uptake at 12 h,[4]; [7],0.01 %ID/g
same,tissue uptake at 1 h,[4]; [8],3.99 %ID/g
same,tissue uptake at 2 h,[4]; [8],2.28 %ID/g
same,tissue uptake at 4 h,[4]; [8],1.39 %ID/g
same,tissue uptake at 6 h,[4]; [8],0.36 %ID/g
same,tissue uptake at 8 h,"[4]; pancreas, 8 h, read-out: pancreas % ID/g",0.12 %ID/g
same,tissue uptake at 12 h,[4]; [8],0.06 %ID/g
same,tissue uptake at 24 h,[4]; [8],0.05 %ID/g
same,tissue uptake at 1 h,[4]; [9],0.46 %ID/g
same,tissue uptake at 2 h,[4]; [9],0.35 %ID/g
same,tissue uptake at 4 h,[4]; [9],0.2 %ID/g
same,tissue uptake at 6 h,[4]; [9],0.12 %ID/g
same,tissue uptake at 24 h,[4]; [9],0.01 %ID/g
same,tissue uptake at 8 h,"[4]; plasma, 8 h, read-out: plasma % ID/g",0.04 %ID/g
same,tissue uptake at 12 h,[4]; [9],0.02 %ID/g
same,tissue uptake at 1 h,[4]; [10],4.11 %ID/g
same,tissue uptake at 2 h,[4]; [10],2.12 %ID/g
same,tissue uptake at 4 h,[4]; [10],1.07 %ID/g
same,tissue uptake at 6 h,[4]; [10],0.28 %ID/g
same,tissue uptake at 8 h,"[4]; spleen, 8 h, read-out: spleen % ID/g",0.11 %ID/g
same,tissue uptake at 12 h,[4]; [10],0.04 %ID/g
same,tissue uptake at 24 h,[4]; [10],0.02 %ID/g
same,tissue uptake at 1 h,[4]; [11],2.49 %ID/g
same,tissue uptake at 2 h,[4]; [11],1.51 %ID/g
same,tissue uptake at 4 h,[4]; [11],1.16 %ID/g
same,tissue uptake at 6 h,[4]; [11],0.49 %ID/g
same,tissue uptake at 8 h,"[4]; stomach, 8 h, read-out: stomach % ID/g",0.22 %ID/g
same,tissue uptake at 12 h,[4]; [11],0.07 %ID/g
same,tissue uptake at 24 h,[4]; [11],0.04 %ID/g
same,tissue uptake at 1 h,[4]; [12],5.11 %ID/g
same,tissue uptake at 2 h,[4]; [12],2.9 %ID/g
same,tissue uptake at 4 h,[4]; [12],1.71 %ID/g
same,tissue uptake at 6 h,[4]; [12],0.95 %ID/g
same,tissue uptake at 8 h,"[4]; submaxillary glands, 8 h, read-out: submaxillary glands % ID/g",0.24 %ID/g
same,tissue uptake at 12 h,[4]; [12],0.04 %ID/g
same,tissue uptake at 24 h,[4]; [12],0.03 %ID/g
same,tissue uptake at 1 h,"[4]; tumor, read-out: tumor % ID/g",3.51 %ID/g
same,tissue uptake at 2 h,"[4]; tumor, read-out: tumor % ID/g",3.17 %ID/g
same,tissue uptake at 4 h,"[4]; tumor, read-out: tumor % ID/g",3.25 %ID/g
same,tissue uptake at 6 h,"[4]; tumor, read-out: tumor % ID/g",1.96 %ID/g
same,tissue uptake at 24 h,"[4]; tumor, read-out: tumor % ID/g",0.07 %ID/g
same,tissue uptake at 8 h,"[4]; tumor, up to 8 hours, Beu, read-out: intratumoral concentration",> 1 %ID/g
same,tissue uptake at 8 h,"[4]; tumor, 8 h, read-out: tumor % ID/g",1.07 %ID/g
same,tissue uptake at 12 h,"[4]; tumor, read-out: tumor % ID/g",0.36 %ID/g
